PMC5059921, “Chalepin: isolated from Ruta angustifolia L. Pers induces mitochondrial mediated apoptosis in lung carcinoma cells” (BMC Complementary and Alternative Medicine, 2016)
Read-outs that look alike come from different tables or passages of the source.

How the values were obtained:
Hepa: Human hepatoma = tested on: Hepa: Human hepatoma; set-up: method as in earlier work; details: cited from earlier work
washed rabbit platelets = tested on: washed rabbit platelets; set-up: method as in earlier work; key to effect on platelet aggregation (class symbol): A: P latelet aggregation was promoted; details: cited from earlier work; for % inhibition of platelet aggregation, inducer AA: AA 100 /c109/c77; for % inhibition of platelet aggregation, inducer PAF: PAF 2ng/mL; for % inhibition of platelet aggregation, inducer Col: collagen 10 /c109g/mL; for % inhibition of platelet aggregation, inducer Thr: thrombin 0.1 U/mL; for antiplatelet aggregation activity (in words): at 100 /c109g/mL
[1] = tested on: DLD (DLD-1): Human colon adenocarcinoma; set-up: method as in earlier work; details: cited from earlier work
[2] = tested on: Hela: Human cervix epithelioid carcinoma; set-up: method as in earlier work; details: cited from earlier work
[3] = tested on: MRC5 (human normal lung fibroblasts); test: SRB in vitro cytotoxicity screening (toxicity to normal cells); type: cell-based; details: isolated compounds; for IC50: 72 h, read-out: IC50 in μg/ml (μM) (MRC5) 72 h (converted)
Description: (§1) The human cell lines A549 (lung cancer) and Ca Ski (cervical cancer) were cultured as monolayer in RPMI 1640 growth media whereas HCT-116 (colon cancer) and MRC5 (human normal lung fibroblasts) was cultured in McCoy’s 5A and EMEM medium, respectively. All cells were purchased from the […] (ATCC, USA). All the media were supplemented with 10 % v/v foetal bovine serum (FBS), 100 μg/mL penicillin/streptomycin, and 50 μg/mL amphotericin B. The cells were cultured in a 5 % CO2 incubator at 37 °C.
(§2) The monolayer cell culture was detached using accutase and the cell count was adjusted to 2.5 x10^5 -3.0 x10^5 cells/mL using medium containing feotal bovine serum. The cells were then plated into 96 wells with a cell density of 5000-7000 cells/well and then incubated for 24 h to allow adherence of cells to the base of well of the plates. The media was then removed and 200 μl of fresh media containing different concentration of various extracts or isolated compounds were added. Cisplatin was used as the positive control. The plates were incubated for 24, 48 and 72 h at 37 °C and 5 % CO2. The cytotoxicity of the extracts and isolated compounds were screened using the […] (SRB) assay. This assay was first described by Houghton in 2007 [8]. The incubation was halted by gentle addition of 50 μl ice cold 4 % trichloroacetic acid (TCA) to each well and the plates were incubated at 4 °C for 1 h. Then, the supernatant was discarded and the plates were washed with distilled water for 5 times and then air dried. SRB dye, 50 μl, (0.4 % w/v) was added into each well and the treated cells and control were incubated at room temperature for 30 min. The unbound dye was removed by rapid washing four times with 1 % acetic acid. The plates were then air dried and 100 μl of tris base (10 mM unbuffered, pH 10.5) was added and the plates were shaken at 500 rpm for 5 min to solublize the bound SRB stain. The plates were then read with an ELISA reader (Synergy H1 Hybrid) at an absorbance of 492 nm.

A549 cell line = test: SRB in vitro cytotoxicity screening; type: cell-based, human; details: isolated compounds
Description: as §1, §2

[4] = Homo sapiens, MRC5, value in brackets
[5] = Homo sapiens, A549, 48 h, value in brackets, read-out: IC50 in μg/ml (μM) (A549) 48 h (converted)
[6] = Homo sapiens, A549, 48 h, read-out: IC50 in μg/ml (μM) (A549) 48 h (converted)
[7] = Homo sapiens, A549, 72 h, value in brackets, read-out: IC50 in μg/ml (μM) (A549) 72 h (converted)
[8] = Homo sapiens, A549, 72 h, read-out: IC50 in μg/ml (μM) (A549) 72 h (converted)

Row | Molecule | ED50 Hepa (Hepa: Human hepatoma) | % inhibition of platelet aggregation, inducer AA (washed rabbit platelets; Conc. 50 /c109g/mL) | % inhibition of platelet aggregation, inducer Col (washed rabbit platelets; Conc. 50 /c109g/mL) | antiplatelet aggregation activity (in words) (washed rabbit platelets) | ED50 DLD [1] | IC50 [3, 4] | IC50 ([3]; Homo sapiens, MRC5) | IC50 (A549 cell line; [5]) | IC50 (A549 cell line; [6]) | IC50 (A549 cell line; [7]) | IC50 (A549 cell line; [8]) | further results
1 | Cn1c(-c2ccc3c(c2)OCO3)cc(=O)c2ccccc21 [Compound 17, graveoline] | - (“-“: ED50 /c6220 /c109g/mL) | 9.5% | 5.2% | no obvious activity | - (“-“: ED50 /c6220 /c109g/mL) |  |  |  |  |  |  | % inhibition of platelet aggregation, inducer PAF (washed rabbit platelets; Conc. 50 /c109g/mL): 6.2%; % inhibition of platelet aggregation, inducer Thr (washed rabbit platelets; Conc. 50 /c109g/mL): 1.1%
2 | skimmianine [Compound 7] | - (“-“: ED50 /c6220 /c109g/mL) | 13.1% | 7.8% |  | - (“-“: ED50 /c6220 /c109g/mL) |  |  |  |  |  |  | ED50 Hela [2]: - (“-“: ED50 /c6220 /c109g/mL); % inhibition of platelet aggregation, inducer AA (washed rabbit platelets; Conc. 20 /c109g/mL): 5.4%; % inhibition of platelet aggregation, inducer Col (washed rabbit platelets; Conc. 20 /c109g/mL): 2.5%; % inhibition of platelet aggregation, inducer AA (washed rabbit platelets; Conc. 100 /c109g/mL): 81.5%; % inhibition of platelet aggregation, inducer Col (washed rabbit platelets; Conc. 100 /c109g/mL): 45.9%
3 | COc1cc2nc3occc3c(OC)c2cc1OC [Compound 6, kokusaginine] | - (“-“: ED50 /c6220 /c109g/mL) |  |  | no obvious activity | - (“-“: ED50 /c6220 /c109g/mL) |  |  |  |  |  |  | % inhibition of platelet aggregation, inducer AA (washed rabbit platelets; Conc. 100 /c109g/mL): 42.2%; % inhibition of platelet aggregation, inducer PAF (washed rabbit platelets; Conc. 100 /c109g/mL): 3.5%; % inhibition of platelet aggregation, inducer Col (washed rabbit platelets; Conc. 100 /c109g/mL): 53.1%; % inhibition of platelet aggregation, inducer Thr (washed rabbit platelets; Conc. 100 /c109g/mL): 0.9%
4 | COc1c2ccoc2c(OC)c2oc(=O)ccc12 [Compound 11, isopimpinellin] |  |  |  | no obvious activity |  |  |  |  |  |  |  | % inhibition of platelet aggregation, inducer AA (washed rabbit platelets; Conc. 100 /c109g/mL): 30.4%; % inhibition of platelet aggregation, inducer PAF (washed rabbit platelets; Conc. 100 /c109g/mL): 4.5%; % inhibition of platelet aggregation, inducer Col (washed rabbit platelets; Conc. 100 /c109g/mL): 8.0%; % inhibition of platelet aggregation, inducer Thr (washed rabbit platelets; Conc. 100 /c109g/mL): 3.9%
5 | bergapten [Compound 9] | - (“-“: ED50 /c6220 /c109g/mL) | 63.5% | 59.0% | no obvious activity | - (“-“: ED50 /c6220 /c109g/mL) |  |  |  |  |  |  | ED50 Hela [2]: - (“-“: ED50 /c6220 /c109g/mL); % inhibition of platelet aggregation, inducer PAF (washed rabbit platelets; Conc. 50 /c109g/mL): 4.5%; % inhibition of platelet aggregation, inducer Thr (washed rabbit platelets; Conc. 50 /c109g/mL): 7.5%
6 | COc1cc2c(c(O)c1OC)c(=O)c1ccccc1n2C [Compound 2, arborinine] | - (“-“: ED50 /c6220 /c109g/mL) | 51.6% | 39.1% | no obvious activity | - (“-“: ED50 /c6220 /c109g/mL) |  |  |  |  |  |  | % inhibition of platelet aggregation, inducer PAF (washed rabbit platelets; Conc. 50 /c109g/mL): 4.8%; % inhibition of platelet aggregation, inducer Thr (washed rabbit platelets; Conc. 50 /c109g/mL): 1.1%
7 | Cn1c(-c2ccc3c(c2)OCO3)cc(=O)c2ccccc21 [Graveoline, graveoline] |  |  |  |  |  | 250 µM | 69.7 ± 2.5 µg/mL | 274 µM | 76.3 ± 2.08 µg/mL | 160 µM | 44.6 ± 0.47 µg/mL | 
8 | COc1cc2nc3occc3c(OC)c2cc1OC [Kokusaginine, kokusaginine] |  |  |  |  |  | 289 µM | 74.8 ± 0.82 µg/mL |  |  |  |  | IC50 (A549 cell line; Homo sapiens, A549, 48 h, 48 h, value in brackets, read-out: IC50 in μg/ml (μM) (A549) 48 h (converted)): 338 µM; IC50 (A549 cell line; Homo sapiens, A549, 48 h, 48 h, read-out: IC50 in μg/ml (μM) (A549) 48 h (converted)): 87.4 ± 7.08 µg/mL; IC50 (A549 cell line; Homo sapiens, A549, 72 h, 72 h, value in brackets, read-out: IC50 in μg/ml (μM) (A549) 72 h (converted)): > 386 µM; IC50 (A549 cell line; Homo sapiens, A549, 72 h, 72 h, read-out: IC50 in μg/ml (μM) (A549) 72 h (converted)): > 100 µg/mL
9 | CC(=O)CCCCCCc1ccc2c(c1)OCO2 [Moskachan D, moskachan D] |  |  |  |  |  | 366 µM | 90.8 ± 0.8 µg/mL | 312 µM | 77.5 ± 3 µg/mL | 74.6 µM | 18.5 ± 0.65 µg/mL | 
10 | C=CC(=C)CCCC(C)CCCC(C)CCCC(C)C (stereo not drawn) [Neophytadiene, neophytadiene] |  |  |  |  |  | 278 µM | 77.4 ± 0.98 µg/mL | 249 µM | 69.2 ± 1.06 µg/mL | 245 µM | 68 ± 2.43 µg/mL | 
11 | CC(=O)CCCCc1ccc2c(c1)OCO2 [Moskachan B, moskachan B] |  |  |  |  |  | > 454 µM | > 100 µg/mL | > 454 µM | > 100 µg/mL | > 454 µM | > 100 µg/mL | 
12 | C=CC(C)(C)c1cc2cc3c(cc2oc1=O)OC(C(C)(C)OC(C)=O)C3 (stereo not drawn) [Compound 14, rutamarin] | - (“-“: ED50 /c6220 /c109g/mL) | 7.6% | 10.5% | no obvious activity |  |  |  |  |  |  |  | % inhibition of platelet aggregation, inducer PAF (washed rabbit platelets; Conc. 50 /c109g/mL): 4.5%; % inhibition of platelet aggregation, inducer Thr (washed rabbit platelets; Conc. 50 /c109g/mL): 3.0%
13 | N.N.[Cl][Pt][Cl] [Cisplatin, reference compound] |  |  |  |  |  |  |  |  |  |  |  | IC50 in μg/ml (μM) (MRC5) 72 h [3]: > 100 µg/mL; IC50 ([3]; value in brackets): > 333 µM; IC50 in μg/ml (μM) (A549) 72 h (A549 cell line; 72 h): 24.5 ± 1.8 µg/mL; IC50 (A549 cell line; 72 h, value in brackets, read-out: IC50 in μg/ml (μM) (A549) 72 h (converted)): 81.7 µM
14 | 1-hydroxy-N-methylacridone [Compound 1] | - (“-“: ED50 /c6220 /c109g/mL) |  |  | no obvious activity |  |  |  |  |  |  |  | % inhibition of platelet aggregation, inducer AA (washed rabbit platelets; Conc. 20 /c109g/mL): 17.8%; % inhibition of platelet aggregation, inducer PAF (washed rabbit platelets; Conc. 20 /c109g/mL): 3.4%; % inhibition of platelet aggregation, inducer Col (washed rabbit platelets; Conc. 20 /c109g/mL): 3.7%; % inhibition of platelet aggregation, inducer Thr (washed rabbit platelets; Conc. 20 /c109g/mL): 4.3%; effect on platelet aggregation (class symbol) (washed rabbit platelets; Conc. 50 /c109g/mL, inducer column cannot be told): A
15 | COc1c2ccoc2cc2oc(=O)ccc12 [Bergapten, bergapten] |  |  |  |  |  | > 463 µM | > 100 µg/mL | > 463 µM | > 100 µg/mL | 202 µM | 43.5 ± 1.81 µg/mL | 
